Article PMC6199744, “Development of Chemical Proteomics for the Folateome and Analysis of the Kinetoplastid Folateome” (ACS Infectious Diseases, 2018)
Where two headings read alike, the source gives them in different places.

How the values were obtained:
Assay type in all cases: binding
[1] = target: T1, HeLa cell extract proteins (Homo sapiens, UniProt Q13315)
T1 construct: endogenous in cells; host or cells: HeLa cell extract

[2] = target: T2, HeLa cell extract proteins (Homo sapiens, UniProt P49588)
T2 construct: endogenous in cells; host or cells: HeLa cell extract
T2 sequence (P49588 1-968): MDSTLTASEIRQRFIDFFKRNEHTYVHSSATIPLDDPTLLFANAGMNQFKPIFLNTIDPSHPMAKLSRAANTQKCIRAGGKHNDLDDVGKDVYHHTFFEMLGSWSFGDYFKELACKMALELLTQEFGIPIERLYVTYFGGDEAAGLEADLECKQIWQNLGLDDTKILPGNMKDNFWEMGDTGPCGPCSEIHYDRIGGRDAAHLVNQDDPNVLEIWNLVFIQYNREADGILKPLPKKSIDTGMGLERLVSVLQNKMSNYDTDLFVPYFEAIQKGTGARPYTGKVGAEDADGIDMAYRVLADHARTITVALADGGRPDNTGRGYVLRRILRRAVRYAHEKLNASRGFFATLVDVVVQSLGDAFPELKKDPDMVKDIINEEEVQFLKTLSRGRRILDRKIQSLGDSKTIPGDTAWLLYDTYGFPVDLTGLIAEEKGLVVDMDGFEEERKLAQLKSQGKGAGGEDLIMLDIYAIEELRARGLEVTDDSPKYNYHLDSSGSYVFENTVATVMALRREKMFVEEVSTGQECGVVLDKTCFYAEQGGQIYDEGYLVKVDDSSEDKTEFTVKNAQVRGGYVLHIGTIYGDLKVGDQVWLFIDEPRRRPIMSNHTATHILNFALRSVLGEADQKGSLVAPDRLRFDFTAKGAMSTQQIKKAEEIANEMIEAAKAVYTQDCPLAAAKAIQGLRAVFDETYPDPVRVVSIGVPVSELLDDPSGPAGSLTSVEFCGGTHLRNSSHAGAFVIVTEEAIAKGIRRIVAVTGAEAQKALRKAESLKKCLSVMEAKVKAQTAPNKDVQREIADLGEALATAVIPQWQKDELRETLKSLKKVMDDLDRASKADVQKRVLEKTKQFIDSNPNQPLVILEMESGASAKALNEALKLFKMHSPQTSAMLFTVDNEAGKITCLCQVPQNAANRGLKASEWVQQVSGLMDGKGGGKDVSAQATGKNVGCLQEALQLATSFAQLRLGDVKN

[3] = target: T3, HeLa cell extract proteins (Homo sapiens, UniProt O75964)
T3 construct: endogenous in cells; host or cells: HeLa cell extract
T3 sequence (O75964 1-103): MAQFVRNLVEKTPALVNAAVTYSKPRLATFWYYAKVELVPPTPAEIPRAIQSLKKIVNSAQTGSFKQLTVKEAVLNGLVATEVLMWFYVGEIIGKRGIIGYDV

[4] = target: T4, HeLa cell extract proteins (Homo sapiens, UniProt P27707)
T4 construct: endogenous in cells; host or cells: HeLa cell extract

[5] = target: T5, HeLa cell extract proteins (Homo sapiens, UniProt P52597)
T5 construct: endogenous in cells; host or cells: HeLa cell extract
T5 sequence (P52597 1-415): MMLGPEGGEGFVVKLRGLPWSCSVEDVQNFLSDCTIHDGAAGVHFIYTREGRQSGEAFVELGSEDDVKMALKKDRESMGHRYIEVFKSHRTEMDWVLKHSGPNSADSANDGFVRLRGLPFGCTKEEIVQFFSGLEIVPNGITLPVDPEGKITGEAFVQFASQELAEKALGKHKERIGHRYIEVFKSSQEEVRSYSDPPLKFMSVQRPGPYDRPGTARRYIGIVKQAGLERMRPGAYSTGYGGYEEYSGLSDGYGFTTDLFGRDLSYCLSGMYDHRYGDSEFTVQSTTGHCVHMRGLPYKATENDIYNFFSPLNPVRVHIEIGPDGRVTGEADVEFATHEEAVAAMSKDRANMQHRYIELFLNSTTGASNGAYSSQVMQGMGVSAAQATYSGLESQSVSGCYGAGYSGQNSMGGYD

[6] = target: T6, HeLa cell extract proteins (Homo sapiens, UniProt P00491)
T6 construct: endogenous in cells; host or cells: HeLa cell extract
T6 sequence (P00491 1-289): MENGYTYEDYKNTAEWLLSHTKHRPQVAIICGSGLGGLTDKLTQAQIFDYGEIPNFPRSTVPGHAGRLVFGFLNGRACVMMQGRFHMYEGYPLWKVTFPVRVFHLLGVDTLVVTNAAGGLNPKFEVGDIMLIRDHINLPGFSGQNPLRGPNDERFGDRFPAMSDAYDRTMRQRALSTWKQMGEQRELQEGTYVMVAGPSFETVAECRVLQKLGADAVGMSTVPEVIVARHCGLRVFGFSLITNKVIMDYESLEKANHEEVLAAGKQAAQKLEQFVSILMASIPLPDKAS

[7] = target: T7, HeLa cell extract proteins (Homo sapiens, UniProt P14324)
T7 construct: endogenous in cells; host or cells: HeLa cell extract
T7 sequence (P14324 1-419): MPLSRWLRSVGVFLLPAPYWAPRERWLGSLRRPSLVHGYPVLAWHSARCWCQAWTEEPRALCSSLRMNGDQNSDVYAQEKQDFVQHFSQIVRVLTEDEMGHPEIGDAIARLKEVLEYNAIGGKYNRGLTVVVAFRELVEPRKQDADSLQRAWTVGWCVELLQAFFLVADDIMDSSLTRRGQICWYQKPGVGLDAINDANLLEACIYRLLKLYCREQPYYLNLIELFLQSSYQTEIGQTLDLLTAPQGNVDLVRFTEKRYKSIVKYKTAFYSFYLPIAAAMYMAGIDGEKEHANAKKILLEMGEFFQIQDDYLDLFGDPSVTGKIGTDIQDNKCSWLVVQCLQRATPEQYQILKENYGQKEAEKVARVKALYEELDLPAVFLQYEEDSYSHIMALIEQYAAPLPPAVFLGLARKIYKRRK

[8] = target: T8, HeLa cell extract proteins (Homo sapiens, UniProt P11310)
T8 construct: endogenous in cells; host or cells: HeLa cell extract
T8 sequence (P11310 26-421): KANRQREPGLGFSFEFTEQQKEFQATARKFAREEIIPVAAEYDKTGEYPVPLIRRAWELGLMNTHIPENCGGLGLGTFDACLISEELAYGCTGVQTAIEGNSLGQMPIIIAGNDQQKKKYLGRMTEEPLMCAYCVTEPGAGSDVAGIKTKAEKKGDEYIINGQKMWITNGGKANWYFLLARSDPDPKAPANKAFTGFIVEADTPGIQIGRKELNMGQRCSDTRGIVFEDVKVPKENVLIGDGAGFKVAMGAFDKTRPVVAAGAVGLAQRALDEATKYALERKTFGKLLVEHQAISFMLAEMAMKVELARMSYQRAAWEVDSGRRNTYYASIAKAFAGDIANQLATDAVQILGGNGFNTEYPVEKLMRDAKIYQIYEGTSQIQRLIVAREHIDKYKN

[9] = HeLa, protein ACADM (HY[…] DKFZP686M24262)

T4 sequence (P27707 whole entry): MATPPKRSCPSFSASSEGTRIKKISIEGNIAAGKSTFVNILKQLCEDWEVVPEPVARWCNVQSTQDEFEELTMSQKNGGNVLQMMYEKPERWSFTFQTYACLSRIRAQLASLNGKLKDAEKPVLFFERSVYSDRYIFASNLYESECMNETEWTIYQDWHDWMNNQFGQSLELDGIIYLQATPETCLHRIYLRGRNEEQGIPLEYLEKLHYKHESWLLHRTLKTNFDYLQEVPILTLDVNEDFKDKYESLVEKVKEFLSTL
T1 sequence (Q13315 whole entry): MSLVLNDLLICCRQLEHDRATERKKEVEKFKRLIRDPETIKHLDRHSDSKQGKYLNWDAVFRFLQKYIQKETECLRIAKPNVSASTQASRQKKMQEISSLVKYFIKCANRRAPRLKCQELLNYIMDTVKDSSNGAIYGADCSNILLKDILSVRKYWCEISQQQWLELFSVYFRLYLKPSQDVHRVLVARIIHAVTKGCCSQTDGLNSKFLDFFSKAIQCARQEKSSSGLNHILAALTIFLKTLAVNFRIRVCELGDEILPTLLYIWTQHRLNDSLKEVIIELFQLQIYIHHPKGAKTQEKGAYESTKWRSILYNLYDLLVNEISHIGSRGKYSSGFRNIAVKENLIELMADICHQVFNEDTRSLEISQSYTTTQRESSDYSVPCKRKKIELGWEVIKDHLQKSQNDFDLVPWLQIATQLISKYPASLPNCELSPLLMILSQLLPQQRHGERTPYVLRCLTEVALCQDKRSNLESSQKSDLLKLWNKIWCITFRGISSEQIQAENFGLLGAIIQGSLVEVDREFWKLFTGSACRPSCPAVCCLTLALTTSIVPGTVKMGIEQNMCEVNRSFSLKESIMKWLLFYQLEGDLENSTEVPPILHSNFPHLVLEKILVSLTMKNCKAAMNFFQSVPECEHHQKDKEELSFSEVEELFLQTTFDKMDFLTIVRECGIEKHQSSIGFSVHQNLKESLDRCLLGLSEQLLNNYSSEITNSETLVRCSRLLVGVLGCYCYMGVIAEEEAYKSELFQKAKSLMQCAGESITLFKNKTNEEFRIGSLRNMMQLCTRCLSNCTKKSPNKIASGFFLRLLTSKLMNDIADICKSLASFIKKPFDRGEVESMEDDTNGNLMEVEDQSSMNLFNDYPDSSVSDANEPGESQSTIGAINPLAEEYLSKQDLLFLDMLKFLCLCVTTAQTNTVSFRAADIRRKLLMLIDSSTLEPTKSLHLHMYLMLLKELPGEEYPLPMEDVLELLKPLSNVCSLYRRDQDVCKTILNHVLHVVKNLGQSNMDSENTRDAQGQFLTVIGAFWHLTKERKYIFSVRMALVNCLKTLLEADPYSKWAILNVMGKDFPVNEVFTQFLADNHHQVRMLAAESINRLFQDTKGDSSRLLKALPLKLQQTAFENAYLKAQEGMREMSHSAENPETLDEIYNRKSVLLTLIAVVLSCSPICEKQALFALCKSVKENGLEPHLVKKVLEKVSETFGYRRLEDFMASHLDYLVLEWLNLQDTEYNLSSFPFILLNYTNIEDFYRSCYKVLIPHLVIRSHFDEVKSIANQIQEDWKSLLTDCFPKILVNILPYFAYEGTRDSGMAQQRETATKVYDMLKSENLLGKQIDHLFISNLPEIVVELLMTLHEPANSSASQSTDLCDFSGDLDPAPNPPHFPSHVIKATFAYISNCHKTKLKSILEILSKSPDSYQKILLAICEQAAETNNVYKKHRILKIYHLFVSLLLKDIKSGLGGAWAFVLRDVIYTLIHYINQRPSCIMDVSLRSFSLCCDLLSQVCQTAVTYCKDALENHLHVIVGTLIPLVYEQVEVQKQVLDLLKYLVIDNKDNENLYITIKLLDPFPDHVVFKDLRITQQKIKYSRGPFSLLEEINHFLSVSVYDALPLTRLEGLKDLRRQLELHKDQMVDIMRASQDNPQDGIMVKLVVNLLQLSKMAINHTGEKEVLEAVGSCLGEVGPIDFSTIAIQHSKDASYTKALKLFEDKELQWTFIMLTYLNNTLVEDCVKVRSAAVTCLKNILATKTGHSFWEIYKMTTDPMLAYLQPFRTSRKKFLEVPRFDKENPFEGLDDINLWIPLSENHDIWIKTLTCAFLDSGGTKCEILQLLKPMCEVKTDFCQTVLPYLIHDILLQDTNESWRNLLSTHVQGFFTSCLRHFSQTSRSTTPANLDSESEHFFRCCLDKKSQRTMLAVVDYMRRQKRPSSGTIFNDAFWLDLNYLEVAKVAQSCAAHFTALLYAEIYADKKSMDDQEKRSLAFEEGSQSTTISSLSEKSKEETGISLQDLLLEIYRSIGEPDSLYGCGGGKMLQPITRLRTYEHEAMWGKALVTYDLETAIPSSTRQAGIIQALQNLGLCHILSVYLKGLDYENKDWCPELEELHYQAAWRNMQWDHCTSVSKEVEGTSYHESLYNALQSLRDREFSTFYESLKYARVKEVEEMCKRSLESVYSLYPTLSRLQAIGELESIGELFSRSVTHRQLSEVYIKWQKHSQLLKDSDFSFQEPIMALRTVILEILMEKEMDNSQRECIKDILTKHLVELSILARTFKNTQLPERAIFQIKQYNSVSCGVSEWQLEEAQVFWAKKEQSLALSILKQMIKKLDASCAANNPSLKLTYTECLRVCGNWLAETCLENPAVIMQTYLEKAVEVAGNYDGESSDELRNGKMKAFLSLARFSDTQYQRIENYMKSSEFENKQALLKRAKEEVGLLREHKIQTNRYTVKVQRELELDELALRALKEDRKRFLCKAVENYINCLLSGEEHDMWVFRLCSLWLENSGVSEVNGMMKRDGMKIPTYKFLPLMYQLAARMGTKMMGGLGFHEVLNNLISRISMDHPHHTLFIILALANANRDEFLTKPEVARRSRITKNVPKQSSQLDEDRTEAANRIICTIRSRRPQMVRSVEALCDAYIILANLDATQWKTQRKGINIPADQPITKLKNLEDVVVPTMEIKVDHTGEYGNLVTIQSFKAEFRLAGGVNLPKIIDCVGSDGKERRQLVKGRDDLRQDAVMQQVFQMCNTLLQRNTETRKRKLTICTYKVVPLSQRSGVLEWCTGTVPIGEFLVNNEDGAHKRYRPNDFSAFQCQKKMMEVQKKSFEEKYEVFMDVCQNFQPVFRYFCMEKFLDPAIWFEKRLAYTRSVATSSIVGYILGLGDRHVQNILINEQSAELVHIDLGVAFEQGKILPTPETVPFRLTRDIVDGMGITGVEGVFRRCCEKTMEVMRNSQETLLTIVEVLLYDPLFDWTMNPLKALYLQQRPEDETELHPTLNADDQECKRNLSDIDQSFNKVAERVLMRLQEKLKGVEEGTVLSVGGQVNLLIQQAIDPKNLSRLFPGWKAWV

Question: What does the source list for Nc1nc2cccc(-c3ccccc3)c2n1Cc1ccc(Cl)c(Cl)c1 [compound 3]?
Answer: fold changes relative to vehicle control ([1]; HeLa, protein ATM): 1.14; fold changes relative to vehicle control ([2]; protein AARS, HeLa): 0.95; fold changes relative to vehicle control ([3]; protein ATP5L, HeLa): 0.98; fold changes relative to vehicle control ([4]; protein DCK, HeLa): 1.01; fold changes relative to vehicle control ([5]; HeLa, protein HNRNPF): 1.36; fold changes relative to vehicle control ([6]; protein NP, HeLa): 0.96; fold changes relative to vehicle control ([7]; protein FDPS, HeLa): 0.87; fold changes relative to vehicle control ([8]; protein ACADM, HeLa): 1

Question: For Nc1nc2[nH]cc(CCc3ccc(C(=O)N[C@@H](CCC(=O)O)C(=O)O)cc3)c2c(=O)[nH]1 [PTX, pemetrexed], which “fold changes relative to vehicle control” value [1] is on record?
Answer: 1.04

Question: And the “fold changes relative to vehicle control” value [2]?
Answer: 1.1

Question: What about the “fold changes relative to vehicle control” value [3] of the same compound?
Answer: 1.32

Question: And the “fold changes relative to vehicle control” value [4]?
Answer: 1

Question: And the “fold changes relative to vehicle control” value [5]?
Answer: 0.87

Question: What about the “fold changes relative to vehicle control” value [6] of the same compound?
Answer: 0.89

Question: And the “fold changes relative to vehicle control” value [7]?
Answer: 1.08

Question: And the “fold changes relative to vehicle control” value [8]?
Answer: 1.3

Question: How did the “fold changes relative to vehicle control” value ([1]; HeLa, protein ATM) turn out when Nc1nc2c(c(=O)[nH]1)N(C=O)C(CNc1ccc(C(=O)N[C@@H](CCC(=O)O)C(=O)O)cc1)CN2 (some centres unmarked) [LEU, leucovorin] was run?
Answer: 0.92

Question: And the “fold changes relative to vehicle control” value ([2]; HeLa, protein AARS)?
Answer: 1.02

Question: What about the “fold changes relative to vehicle control” value ([3]; HeLa, protein ATP5L) of the same compound?
Answer: 1.07

Question: And the “fold changes relative to vehicle control” value ([4]; HeLa, protein DCK (DEO[…]))?
Answer: 1.12

Question: And the “fold changes relative to vehicle control” value ([5]; HeLa, captured protein HNRNPF)?
Answer: 0.98

Question: What about the “fold changes relative to vehicle control” value ([6]; protein NP, HeLa) of the same compound?
Answer: 0.9

Question: What about the “fold changes relative to vehicle control” value ([7]; HeLa, captured protein FDPS) of the same compound?
Answer: 1.05

Question: What about the “fold changes relative to vehicle control” value [8, 9] of the same compound?
Answer: 1.16

Question: With CCCCCCOc1cccc(Cc2cnc(N)nc2N)c1 [compound 2] as the compound, how does the “fold changes relative to vehicle control” value ([1]; HeLa, protein ATM) read?
Answer: 1.01

Question: And the “fold changes relative to vehicle control” value ([2]; protein AARS, HeLa)?
Answer: 1.96

Question: And the “fold changes relative to vehicle control” value ([3]; protein ATP5L, HeLa)?
Answer: 0.95

Question: And the “fold changes relative to vehicle control” value ([4]; protein DCK, HeLa)?
Answer: 0.9

Question: What about the “fold changes relative to vehicle control” value ([5]; HeLa, protein HNRNPF) of the same compound?
Answer: 0.88

Question: And the “fold changes relative to vehicle control” value ([6]; protein NP, HeLa)?
Answer: 1.4

Question: What about the “fold changes relative to vehicle control” value ([7]; protein FDPS, HeLa) of the same compound?
Answer: 2.08

Question: What about the “fold changes relative to vehicle control” value ([8]; protein ACADM, HeLa) of the same compound?
Answer: 1.75

Question: For NCCOCCOCC(=O)Nc1nc2ncc(CNc3ccc(C(=O)NC(CCC(=O)O)C(=O)O)cc3)nc2c(=O)[nH]1 (centres unmarked) [compound 6], which “fold changes relative to vehicle control” value ([1]; HeLa, protein ATM) is on record?
Answer: 1.1

Question: What about the “fold changes relative to vehicle control” value ([2]; HeLa, protein AARS) of the same compound?
Answer: 1.28

Question: What about the “fold changes relative to vehicle control” value ([3]; HeLa, protein ATP5L) of the same compound?
Answer: 0.98

Question: What about the “fold changes relative to vehicle control” value ([4]; HeLa, protein DCK (DEOXYCYTIDINE KINASE)) of the same compound?
Answer: 0.93

Question: What about the “fold changes relative to vehicle control” value ([5]; HeLa, captured protein HNRNPF) of the same compound?
Answer: 0.92

Question: What about the “fold changes relative to vehicle control” value ([6]; protein NP, HeLa) of the same compound?
Answer: 1.08

Question: What about the “fold changes relative to vehicle control” value ([7]; HeLa, captured protein FDPS) of the same compound?
Answer: 1.29

Question: And the “fold changes relative to vehicle control” value ([8]; HeLa, protein ACADM (HYPOTHETICAL PROTEIN DKFZP686M24262))?
Answer: 1.43

Question: With CCCCCCOc1ccc(Cc2cnc(N)nc2N)cc1 [compound 1] as the compound, how does the “fold changes relative to vehicle control” value ([1]; HeLa, protein ATM) read?
Answer: 1.03

Question: What about the “fold changes relative to vehicle control” value ([2]; protein AARS, HeLa) of the same compound?
Answer: 1.15

Question: And the “fold changes relative to vehicle control” value ([3]; protein ATP5L, HeLa)?
Answer: 1.2

Question: What about the “fold changes relative to vehicle control” value ([4]; protein DCK, HeLa) of the same compound?
Answer: 0.98

Question: And the “fold changes relative to vehicle control” value ([5]; HeLa, protein HNRNPF)?
Answer: 0.95

Question: And the “fold changes relative to vehicle control” value ([6]; protein NP, HeLa)?
Answer: 1.16

Question: And the “fold changes relative to vehicle control” value ([7]; protein FDPS, HeLa)?
Answer: 1.17

Question: What about the “fold changes relative to vehicle control” value ([8]; protein ACADM, HeLa) of the same compound?
Answer: 1.17

Question: With NCCCNc1ccc(C(=O)NC(CCC(=O)O)C(=O)O)cc1 (centres unmarked) [compound 7] as the compound, how does the “fold changes relative to vehicle control” value ([1]; HeLa, protein ATM) read?
Answer: 1.09

Question: And the “fold changes relative to vehicle control” value ([2]; HeLa, protein AARS)?
Answer: 1

Question: What about the “fold changes relative to vehicle control” value ([3]; HeLa, protein ATP5L) of the same compound?
Answer: 0.97

Question: And the “fold changes relative to vehicle control” value ([4]; HeLa, protein DCK (DEO[…]))?
Answer: 1.04

Question: And the “fold changes relative to vehicle control” value ([5]; HeLa, captured protein HNRNPF)?
Answer: 0.95

Question: What about the “fold changes relative to vehicle control” value ([6]; protein NP, HeLa) of the same compound?
Answer: 0.89

Question: What about the “fold changes relative to vehicle control” value ([7]; HeLa, captured protein FDPS) of the same compound?
Answer: 0.97

Question: And the “fold changes relative to vehicle control” value [8, 9]?
Answer: 1.06
